Measurements reported in patent US20110152267A1, “Compositions and Methods for Treating Hyperproliferative Disorders” (Texas Tech University System, priority 2009, published 2011).

Experiments:
Type in all cases: cell-based, human
[1] = test system: U-266 Multiple Myeloma cell line; test: DIMSCAN cytotoxicity, fenretinide + L-threo-sphinganines 3:1 (Example B3); settings: 96 h
Protocol: (§1) Cytotoxicity Assay—Once again, cytotoxicity is determined using the DIMSCAN assay system (R. Proffitt et al., Cytometry 24, 204-213 (1996); T. Frgala et al., Mol Cancer Ther. 6:886-97, 2007). The system employs digital imaging microscopy to quantify viable cells, which selectively accumulate fluorescein diacetate to become brightly fluorescent. The system is capable of measuring cytotoxicity over a 4-5 log dynamic range by quenching the residual fluorescence of dead and dying cells with eosin Y and quantifying the total fluorescence of viable cells using digital thresholding. Measured fluorescence is directly proportionate to the number of viable cells. A comparison of the total fluorescence of a drug-treated cell population to the fluorescence of a similar number of untreated cells yields a survival fraction. In brief, 2000 to 10,000 cells/well (depending on size and growth rates) are replicate plated into 60 wells of a 96-well tissue culture plate in 0.1 mL of whole medium and allowed to attach overnight. Drug(s) are then added in 0.05 mL of whole medium to the final concentrations indicated. Drugs (fenretinide, and various chain length L-threo-sphinganines) were tested both as single agents and in a 3:1 ratio of fenretinide:sphinganine. C18-L-threo-sphinganine, or “safingol,” was also tested and results shown for reference. There are 12 wells treated per drug concentration. Twelve wells receive drug vehicle-only to the appropriate final concentration and serve as controls for the plate. Cells are incubated for 96 hours at 37° C. in ambient air with 5% CO2. Fluorescein diacetate is then added to each well in 0.05 mL media to a final concentration of 8 microgram/mL. Cells are incubated for a further 15 minutes at 37° C. and 0.03 mL of 0.5% eosin Y is added to each well. Total fluorescence of viable cells is then measured by digital imaging microscopy. Results were graphed as the ratio of the fluoresecence of drug-treated wells to non-drug treated control wells (i.e., Survival Fraction). All tests were performed at least twice. Representative results are shown.
(§2) The Combination Index (CI) is a term to describe mathematical modeling of the pharmacologic effects on cytotoxicity (cell death) of two drugs in combination based. Cytotoxic “synergy” is defined as a cell death affect which is greater than would be expected from a simple product of the single agent cytotoxicities alone (i.e. an “additive” effect). By Chou-Talalay analysis, a CI<0.9 on a Fraction Affected (“Fa”, i.e. fraction of cells killed) indicates synergy, with smaller numbers indicating greater synergy; a CI of 0.9-1.1 signifies an additive or near-additive effect; and a CI>1.1 means the drug combination is antagonistic.
Fenretinide and L-threo-sphinganines tested in human Multiple Myeloma (a cancer of the blood and bone marrow) cell line, U-266.

[2] = test system: A-172 Glioblastoma multiforme cell line; test: DIMSCAN cytotoxicity, fenretinide + L-threo-sphinganines 3:1 (Example B4); design: key to CI (Combination Index): Chou-Talalay CI: <0.9 synergy, 0.9-1.1 additive, >1.1 antagonism; settings: 96 h
Protocol: as §1, §2
Fenretinide and L-threo-sphinganines tested in human Glioblastoma multiforme (brain cancer) cell line, A-172.

[3] = test system: T98G Glioblastoma multiforme cell line; test: DIMSCAN cytotoxicity, fenretinide + L-threo-sphinganines 3:1 (Example B6); settings: 96 h
Protocol: as §1, §2
Fenretinide and L-threo-sphinganines tested in human Glioblastoma multiforme (brain cancer) cell line, T98G.

[4] = test system: SJ-G2 Glioblastoma cell line; test: DIMSCAN cytotoxicity, fenretinide + L-threo-sphinganines 3:1 (Example B8); settings: 96 h
Protocol: as §1, §2
Fenretinide and L-threo-sphinganines tested in human Glioblastoma (brain cancer) cell line, SJ-G2.

[5] = test system: PANC-1 pancreatic adenocarcinoma cell line; test: DIMSCAN cytotoxicity, fenretinide + L-threo-sphinganines 3:1 (Example B18)
Protocol: as §1, §2
Fenretinide and L-threo-sphinganines tested in human pancreatic adenocarcinoma (pancreas cancer) cell line, PANC-1.

[6] = test system: HT-29 colorectal adenocarcinoma cell line; test: DIMSCAN cytotoxicity, fenretinide + L-threo-sphinganines 3:1 (Example B10); settings: 96 h
Protocol: as §1, §2
Fenretinide and L-threo-sphinganines tested in human colorectal adenocarcinoma (colon cancer) cell line, HT-29.

[7] = test system: SJ-GBM2 Glioblastoma multiforme cell line; test: DIMSCAN cytotoxicity, fenretinide + L-threo-sphinganines 3:1 (Example B7); design: key to CI (Combination Index): Chou-Talalay CI: <0.9 synergy, 0.9-1.1 additive, >1.1 antagonism; settings: 96 h
Protocol: as §1, §2
Fenretinide and L-threo-sphinganines tested in human Glioblastoma multiforme (brain cancer) cell line, SJ-GBM2.

[8] = test system: OVCAR-8 ovarian adenocarcinoma cell line; test: DIMSCAN cytotoxicity, fenretinide + L-threo-sphinganines 3:1 (Example B15); design: key to CI (Combination Index): Chou-Talalay CI: <0.9 synergy, 0.9-1.1 additive, >1.1 antagonism; settings: 96 h
Protocol: as §1, §2
Fenretinide and L-threo-sphinganines tested in human ovarian adenocarcinoma (ovarian cancer) cell line, OVCAR-8.

[9] = 4-HPR 1.5 μM + L-threo-sphinganine 0.5 μM
[10] = 4-HPR 3 μM + L-threo-sphinganine 1 μM
[11] = 4-HPR 6 μM + L-threo-sphinganine 2 μM
[12] = 4-HPR 9 μM + L-threo-sphinganine 3 μM

## CCCCCCCCCCC[C@H](O)[C@@H](N)CO [C14]
[1]; [9]
  CI (Combination Index): 0.9
  Fa (fraction affected): 0.163
[1]; [10]
  CI (Combination Index): 1.1
  Fa (fraction affected): 0.315
[1]; [11]
  CI (Combination Index): 1.0
  Fa (fraction affected): 0.687
[1]; [12]
  CI (Combination Index): 1.3
  Fa (fraction affected): 0.76
[2]; [9]
  CI (Combination Index): 23.7
  Fa (fraction affected): 0.001
[2]; [10]
  CI (Combination Index): 3.8
  Fa (fraction affected): 0.065
[2]; [11]
  CI (Combination Index): 1.0
  Fa (fraction affected): 0.717
[2]; [12]
  CI (Combination Index): 0.5
  Fa (fraction affected): 0.958
[3]; [9]
  CI (Combination Index): 1.0
  Fa (fraction affected): 0.544
[3]; [10]
  CI (Combination Index): 1.6
  Fa (fraction affected): 0.602
[3]; [11]
  CI (Combination Index): 1.0
  Fa (fraction affected): 0.839
[3]; [12]
  CI (Combination Index): 0.5
  Fa (fraction affected): 0.941
[4]; [9]
  CI (Combination Index): 1.3
  Fa (fraction affected): 0.103
[4]; [10]
  CI (Combination Index): 1.3
  Fa (fraction affected): 0.307
[4]; [11]
  CI (Combination Index): 1.4
  Fa (fraction affected): 0.575
[4]; [12]
  CI (Combination Index): 1.0
  Fa (fraction affected): 0.845
[5]; [9]
  CI: 3.2
  Fa: 0.054
[5]; [10]
  CI: 2.6
  Fa: 0.176
[5]; [11]
  CI: 2.1
  Fa: 0.450
[5]; [12]
  CI: 0.7
  Fa: 0.883
[6]; [9]
  CI (Combination Index): 1.0
  Fa (fraction affected): 0.215
[6]; [10]
  CI (Combination Index): 1.3
  Fa (fraction affected): 0.598
[6]; [11]
  CI (Combination Index): 1.8
  Fa (fraction affected): 0.822
[6]; [12]
  CI (Combination Index): 1.4
  Fa (fraction affected): 0.982
[7]; [9]
  CI (Combination Index): 5.0
  Fa (fraction affected): 0.007
[7]; [10]
  CI (Combination Index): 1.2
  Fa (fraction affected): 0.209
[7]; [11]
  CI (Combination Index): 1.2
  Fa (fraction affected): 0.598
[7]; [12]
  CI (Combination Index): 1.4
  Fa (fraction affected): 0.820
[8]; [9]
  CI (Combination Index): 0.1
  Fa (fraction affected): 0.696
[8]; [10]
  CI (Combination Index): 0.1
  Fa (fraction affected): 0.860
[8]; [11]
  CI (Combination Index): 0.1
  Fa (fraction affected): 0.978
[8]; [12]
  CI (Combination Index): 0.1
  Fa (fraction affected): 0.988

## CCCCCCCCCCCC[C@H](O)[C@@H](N)CO [C15]
[1]; [9]
  CI (Combination Index): 1.2
  Fa (fraction affected): 0.085
[1]; [10]
  CI (Combination Index): 1.5
  Fa (fraction affected): 0.241
[1]; [11]
  CI (Combination Index): 1.2
  Fa (fraction affected): 0.697
[1]; [12]
  CI (Combination Index): 0.9
  Fa (fraction affected): 0.929
[2]; [9]
  CI (Combination Index): 23.7
  Fa (fraction affected): 0.001
[2]; [10]
  CI (Combination Index): 1.4
  Fa (fraction affected): 0.378
[2]; [11]
  CI (Combination Index): 0.4
  Fa (fraction affected): 0.991
[2]; [12]
  CI (Combination Index): 0.4
  Fa (fraction affected): 0.998
[3]; [9]
  CI (Combination Index): 1.3
  Fa (fraction affected): 0.516
[3]; [10]
  CI (Combination Index): 1.3
  Fa (fraction affected): 0.683
[3]; [11]
  CI (Combination Index): 1.0
  Fa (fraction affected): 0.849
[3]; [12]
  CI (Combination Index): 0.4
  Fa (fraction affected): 0.962
[4]; [9]
  CI (Combination Index): 1.1
  Fa (fraction affected): 0.135
[4]; [10]
  CI (Combination Index): 1.3
  Fa (fraction affected): 0.282
[4]; [11]
  CI (Combination Index): 1.3
  Fa (fraction affected): 0.620
[4]; [12]
  CI (Combination Index): 1.0
  Fa (fraction affected): 0.846
[5]; [9]
  CI: 2.9
  Fa: 0.078
[5]; [10]
  CI: 2.2
  Fa: 0.205
[5]; [11]
  CI: 1.7
  Fa: 0.486
[5]; [12]
  CI: 0.2
  Fa: 0.978
[6]; [9]
  CI (Combination Index): 2.0
  Fa (fraction affected): 0.204
[6]; [10]
  CI (Combination Index): 0.8
  Fa (fraction affected): 0.660
[6]; [11]
  CI (Combination Index): 1.1
  Fa (fraction affected): 0.859
[6]; [12]
  CI (Combination Index): 0.8
  Fa (fraction affected): 0.976
[7]; [9]
  CI (Combination Index): 1.7
  Fa (fraction affected): 0.086
[7]; [10]
  CI (Combination Index): 1.1
  Fa (fraction affected): 0.301
[7]; [11]
  CI (Combination Index): 0.9
  Fa (fraction affected): 0.765
[7]; [12]
  CI (Combination Index): 1.0
  Fa (fraction affected): 0.953
[8]; [9]
  CI (Combination Index): 0.1
  Fa (fraction affected): 0.668
[8]; [10]
  CI (Combination Index): 0.1
  Fa (fraction affected): 0.854
[8]; [11]
  CI (Combination Index): 0.1
  Fa (fraction affected): 0.977
[8]; [12]
  CI (Combination Index): 0.2
  Fa (fraction affected): 0.977
